TGI and GI50 data for ten compounds are collected here from PubChem BioAssay (NCI).

Where “and” joins values, the source holds several entries; their conditions need not be identical. Identical values can stand only once.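 96-well plates; 48 h exposure; 5 concentrations. Endpoints by linear interpolation between flanking doses. Not reached: highest tested concentration assigned. At the GI50, growth is halved. TGI: total growth inhibition.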

Among the test systems are 786-0 renal; ACHN renal; DMS 114 small cell lung; EKVX NSCLC; HCT-116 colon; KM12 colon; OVCAR-4 ovarian; SK-MEL-28 melanoma; SNB-75 CNS; CCRF-CEM leukemia.
Common to all, as to assay: inhibition of tumour cell growth, NCI panel, 48 h

In the case of `CCOC(=O)NC(=O)c1cn(CCN2CCN(C(=O)NCCCCCCNC(=O)N3CCN(CCn4cc(C(=O)NC(=O)OCC)c(=O)n(CCN(CC)CC)c4=O)CC3)CC2)c(=O)n(CCC(CC)CC)c1=O`, the TGI in the assay with 786-0 renal, with ACHN renal, with DMS 114 small cell lung, in the assay on EKVX NSCLC, in the assay with HCT-116 colon and with KM12 colon was over 100 µM in each case. Also, the TGI with OVCAR-4 ovarian, with SK-MEL-28 melanoma and in the assay on SNB-75 CNS was over 100 µM in each case.

On to `Cc1ccc(S(=O)(=O)Nc2nc3ccccc3nc2Nc2ccc3nsnc3c2)cc1`, for which the GI50 was 3.65 µM with 786-0 renal; 4.01 µM and 3.75 µM in the assay with ACHN renal; 3.32 µM and 2.93 µM in the assay with CCRF-CEM leukemia; 4.03 µM and 3.6 µM in the assay with EKVX NSCLC; 3.52 µM with HCT-116 colon; 4.3 µM with KM12 colon. Further, the GI50 in the assay on OVCAR-4 ovarian is 3.13 µM; with SK-MEL-28 melanoma, 4.38 µM and 4.11 µM; in the assay on SNB-75 CNS, 8.81 µM and 3.89 µM. Further, the TGI is over 100 µM in the assay on 786-0 renal; over 100 µM in the assay with ACHN renal; over 100 µM in the assay on CCRF-CEM leukemia; over 100 µM with EKVX NSCLC; 15.4 µM and > 100 µM in the assay on HCT-116 colon; over 100 µM in the assay with KM12 colon. Besides, the TGI in the assay on OVCAR-4 ovarian, in the assay on SK-MEL-28 melanoma and in the assay on SNB-75 CNS was over 100 µM in each case.

For `C[C@@H]1C[C@@]2(O[C@@H]2C)C(=O)O[C@@H]2CCN3CC=C(COC(=O)[C@]1(C)O)[C@H]23`, the TGI with 786-0 renal, in the assay with ACHN renal, in the assay with CCRF-CEM leukemia, in the assay with EKVX NSCLC, in the assay with HCT-116 colon and in the assay with KM12 colon was over 100 µM in each case. Moreover, the TGI in the assay on OVCAR-4 ovarian, in the assay on SK-MEL-28 melanoma and in the assay with SNB-75 CNS was over 100 µM in each case.

`COC(=O)[C@@]1(O)C[C@H]2O[C@]1(C)n1c3ccccc3c3c4c(c5c6ccccc6n2c5c31)C(=O)NC4`: the GI50 in the assay on 786-0 renal is 0.312 µM; with ACHN renal it was 0.0368 µM; with CCRF-CEM leukemia, 0.321 µM; in the assay with EKVX NSCLC, 1.92 µM; with HCT-116 colon, 0.102 µM; in the assay on KM12 colon it was 0.0269 µM. Besides, the GI50 with OVCAR-4 ovarian was 1.24 µM; in the assay on SK-MEL-28 melanoma, 0.203 µM; in the assay with SNB-75 CNS, 0.185 µM. Further, the TGI in the assay on 786-0 renal worked out at 1.67 µM; with ACHN renal, 3.07 µM; with CCRF-CEM leukemia, 1.64 µM; with EKVX NSCLC it was 7.58 µM; in the assay with HCT-116 colon, 2.24 µM; in the assay on KM12 colon, 1.07 µM. Moreover, the results for the TGI with OVCAR-4 ovarian, in the assay on SK-MEL-28 melanoma and with SNB-75 CNS were 2.76 µM, 1.26 µM and 1.04 µM, respectively.

As for `COc1ccc(/C=C/C(=O)c2cc3c(N)c(C(=O)Nc4ccccc4)sc3nc2C)cc1`, the GI50 in the assay with 786-0 renal was 0.276 µM; in the assay on ACHN renal, 0.344 µM; in the assay with CCRF-CEM leukemia, 0.184 µM; in the assay on EKVX NSCLC it was 0.752 µM; in the assay with HCT-116 colon, 0.189 µM; in the assay on KM12 colon, 0.204 µM. Further, the figures for the GI50 in the assay with OVCAR-4 ovarian, in the assay on SK-MEL-28 melanoma and in the assay with SNB-75 CNS were 0.472 µM, 2.16 µM and 0.0933 µM, respectively. For the same compound, the TGI with 786-0 renal is over 16 µM; with ACHN renal it was over 23 µM; in the assay with CCRF-CEM leukemia, over 28.7 µM; with EKVX NSCLC it was over 50 µM; with HCT-116 colon it was 5.1 µM; in the assay on KM12 colon, 7.18 µM. In addition, the figures for the TGI in the assay on OVCAR-4 ovarian and in the assay on SK-MEL-28 melanoma were over 50 µM and over 45.1 µM, respectively.

For the compound `COC(=O)C(CC(=O)Nc1ccc(Cl)c(Cl)c1)C(=O)C(=O)NC1C2CC3CC(C2)CC1C3` (centres undefined), the TGI in the assay on 786-0 renal, in the assay with ACHN renal, in the assay with CCRF-CEM leukemia, in the assay on DMS 114 small cell lung, with EKVX NSCLC and in the assay on HCT-116 colon was over 100 µM in each case. Also, the TGI with KM12 colon, in the assay with OVCAR-4 ovarian and with SK-MEL-28 melanoma was over 100 µM throughout.

`O=C(NCP(=O)(O)O)c1cccnc1`: the TGI in the assay with 786-0 renal, with ACHN renal, in the assay on CCRF-CEM leukemia, in the assay with EKVX NSCLC, in the assay with HCT-116 colon and in the assay on KM12 colon was over 100 µM each time. The TGI with OVCAR-4 ovarian, in the assay with SK-MEL-28 melanoma and with SNB-75 CNS was over 100 µM each time.

Take `C=CC(=O)Nc1cccc(C)c1Nc1ncc2cc(-c3c(Cl)c(OC)cc(OC)c3Cl)ccc2n1`: the GI50 in the assay with 786-0 renal was 2.33 µM; in the assay on ACHN renal, 7.01 µM; with CCRF-CEM leukemia, 4.44 µM; in the assay with EKVX NSCLC it was 6.85 µM; with HCT-116 colon it was 6.36 µM; in the assay on KM12 colon it was 4.11 µM. In addition, the results for the GI50 in the assay on OVCAR-4 ovarian, in the assay on SK-MEL-28 melanoma and in the assay on SNB-75 CNS were 3.47 µM, 12.7 µM and 2.57 µM, respectively. Further, the TGI with 786-0 renal was 10.1 µM; in the assay with ACHN renal, over 100 µM; in the assay on CCRF-CEM leukemia, over 100 µM; with EKVX NSCLC, 52.9 µM; in the assay on HCT-116 colon it was 24.9 µM; in the assay on KM12 colon, 24.8 µM. The TGI in the assay with OVCAR-4 ovarian was over 100 µM; in the assay on SK-MEL-28 melanoma, 55.6 µM; with SNB-75 CNS, 44.9 µM.

In the case of `CS/C(c1ccccc1)=[N+](/C)[O-]`, the TGI with 786-0 renal is over 100 µM; in the assay with ACHN renal it was over 100 µM; with CCRF-CEM leukemia, over 81.8 µM; in the assay on EKVX NSCLC, over 100 µM; with HCT-116 colon, over 100 µM; in the assay with KM12 colon, over 100 µM. Also, the TGI with OVCAR-4 ovarian, with SK-MEL-28 melanoma and in the assay with SNB-75 CNS was over 100 µM in each case.

Consider `COCCNC(=O)c1ccc(-c2nc3ccc4[nH]ncc4c3c3c2CCCC3)cc1`, for which the GI50 in the assay on 786-0 renal is 2.12 µM; with ACHN renal, 1.14 µM; in the assay with CCRF-CEM leukemia it was 2.44 µM; with EKVX NSCLC it was 1.61 µM; in the assay on HCT-116 colon, 1.2 µM; with KM12 colon, 0.741 µM. Further, the GI50 was 4.59 µM in the assay with OVCAR-4 ovarian, 2.49 µM in the assay on SK-MEL-28 melanoma and 2.01 µM in the assay with SNB-75 CNS. For the same compound, the TGI with 786-0 renal is 16.2 µM; in the assay on ACHN renal, 57.7 µM; with CCRF-CEM leukemia, 16.6 µM; in the assay on EKVX NSCLC, 43.2 µM; with HCT-116 colon it was over 100 µM; in the assay with KM12 colon, 42.5 µM. Moreover, the TGI with OVCAR-4 ovarian is 72.9 µM; with SK-MEL-28 melanoma, 98.2 µM; in the assay on SNB-75 CNS it was 6.24 µM.
